This note sets out measurements from patent publication US20120190004A1, “METHODS AND COMPOSITIONS FOR THE CRYOPRESERVATION OF DUCKWEED” (Biolex Therapeutics, Inc., priority 2009, published 2012).

Assay in all cases: Cryopreservation success rate after dormancy induction in sugar-supplemented medium
The test system of one assay is L. sp. Branson. It is filed as in vivo. The note with it: for Cryopreservation success, in words: summary of Tables 6 and 7. As to the method: (§1) Lemna minor duckweed plants were cultured on Schenk and Hildebrandt media with 20 mg/ml sucrose at an aerial temperature of between 21° C. and 30° C. and light levels ranging from 200 μM·M^−2·sec^−1 to 450 μM·M^−2·sec^−1 for 1 day up to 1 year. Three frond colonies (each frond colony comprised one or more daughter fronds attached to the mother frond) were aseptically transferred into a 2.0-mL cryovial containing a 900 μL solution of Schenk and Hildebrandt media, […] step. The frond colonies were incubated in this sugar solution for 21-30 days. Each 24-hour photoperiod was comprised of fluctuations in temperature and light levels. Specifically, the daytime hours consisted of culturing the duckweed frond colony at an aerial temperature of 10° C. with a light level of about 25 μM·M^−2·sec^−1 to about 50 μM·M^−2·sec^−1 for a duration of 3 hours, followed by an aerial temperature of 15° C. at a light level of about 25 μM·M^−2·sec^−1 to about 75 μM·M^−2·sec^−1 for a duration of 6 hours, and an aerial temperature of 10° C. with a light level of about 25 μM^−2·sec^−1 to about 50 μM·M^−2·sec^−1 for a duration of 3 hours. During the nighttime hours of the 24-hour photoperiod, the duckweed frond colonies were cultured at an aerial temperature of 4° C. in the absence of light for a duration of 12 hours.
(§2) The duckweed frond colonies were dehydrated in a laminar flow hood in 900 μL of a cryoprotective solution, comprising 1.92 M DMSO, […], 3.26 M glycerol, and 0.4 M sucrose at pH 5.8. The cryovials were incubated in this solution at 4° C. for 30 minutes to 2 hours in the absence of light. Following the incubation, the cryoprotective solution was removed and replaced with 900 μL of fresh cryoprotective solution.
(§3) The duckweed frond colonies were frozen in a slow rate freezer according to the following freezing protocol. The cryovials containing the duckweed frond colonies were held at 4° C. and the temperature was lowered to −4° C. at 1° C. per minute, to −40° C. at 25° C. per minute, and then raised to −12° C. at 10° C. per minute. The temperature was again lowered to −40° C. at 1° C. per minute, to −90° C. at 10° C. per minute, and then lowered to −150° C. at 10° C. per minute. Once frozen, the vials containing the frond colonies were transferred to the vapor phase of liquid nitrogen for storage.
(§4) After up to 17 months in storage, the frozen duckweed frond colonies were thawed and recovered as follows. The vials containing the frozen duckweed frond colonies were transferred from the liquid nitrogen storage tank to a laminar flow hood and were thawed at room temperature for approximately ten minutes. The cryoprotective solution was removed and replaced with 900 μL of Schenk and Hildebrandt medium, supplemented with 1.2 M sucrose, followed by a ten minute incubation at room temperature. The 1.2 M sucrose was subsequently diluted by a series of five dilutions whereby 450 μL of the 1.2 M sucrose solution was removed and replaced with 450 μL of Schenk and Hildebrandt medium supplemented with 20 mg/ml sucrose. Following the serial dilutions, the frond colonies were transferred to a petri dish with Schenk and Hildebrandt medium, supplemented with 10 mg/ml sucrose and 1% (weight/volume) agar. The duckweed frond colonies were cultured at an aerial temperature of between 21° C. and 30° C. with light levels ranging from about 20 μM·M^−2·sec^−1 to about 100 μM·M^−2·sec^−1 for 7-14 days prior to calculating the success rate of the cryopreservation procedure.
(§5) The cryopreservation success rate was calculated by the total number of visible daughter fronds (or daughter fronds with viable tissue) to survive the freezing process and successfully reproduce new daughter fronds as a percentage of the total number of visible daughter fronds that were frozen. Viability of tissue or of daughter fronds was assessed by the presence of green tissue and the ability of these fronds or frond tissues to reproduce and generate new daughter fronds. […]

Another assay relates to BAP01-B2-230 line. It is filed as in vivo, Lemna minor. The note with it: sugars at two concentrations: 90 mg/ml (1X) and 270 mg/ml (3X). Here is the method:
(§6) Lemna minor duckweed plants were cultured on Schenk and Hildebrandt media with 20 mg/ml sucrose at an aerial temperature of between 21° C. and 30° C. and light levels ranging from […] for 1 day up to 1 year. Three frond colonies (each frond colony comprised one or more daughter fronds attached to the mother frond) were aseptically transferred into a 2.0-mL cryovial containing a 900 μL solution of Schenk and Hildebrandt media, supplemented with 15 mg/ml of each D-trehalose dihydrate, sucrose, D-sorbitol, D-raffinose pentahydrate, D-glucose, and D-mannitol for the dormancy-induction step. The frond colonies were incubated in this sugar solution for 21-30 days. Each 24-hour photoperiod was comprised of fluctuations in temperature and light levels. Specifically, the daytime hours consisted of culturing the duckweed frond colony at an aerial temperature of 10° C. with a light level of about 25 μM·M^−2·sec^−1 to about 50 μM·M^−2·sec^−1 for a duration of 3 hours, followed by an aerial temperature of 15° C. at a light level of about 25 μM·M^−2·sec^−1 to about 75 μM·M^−2·sec^−1 for a duration of 6 hours, and an aerial temperature of 10° C. with a light level of about 25 μM^−2·sec^−1 to about 50 μM·M^−2·sec^−1 for a duration of 3 hours. During the nighttime hours of the 24-hour photoperiod, the duckweed frond colonies were cultured at an aerial temperature of 4° C. in the absence of light for a duration of 12 hours.
as §2, §3, §4
(§7) The cryopreservation success rate was calculated by the total number of visible daughter fronds (or daughter fronds with viable tissue) to survive the freezing process and successfully reproduce new daughter fronds as a percentage of the total number of visible daughter fronds that were frozen. […]

For assay [1], the system named is L. minor. The assay is classed as in vivo, Lemna minor. The note with it: for Cryopreservation success rate: single sugars 90 mg/ml unless the label says 20 mg/ml, six sugar combo 15 mg/ml each; for Cryopreservation success, in words: summary of Tables 6 and 7. Here is the method:
as §6, §2, §3, §4, §7

A further assay relates to Sp. polyrrhiza. The assay is classed as in vivo, Spirodela polyrrhiza. The note with it: for Cryopreservation success rate: single sugars 90 mg/ml unless the label says 20 mg/ml, six sugar combo 15 mg/ml each; for Cryopreservation success, in words: summary of Tables 6 and 7.
For a further assay, the system named is L. yungensis. The assay is classed as in vivo, Lemna yungensis. The note with it: for Cryopreservation success rate: single sugars 90 mg/ml unless the label says 20 mg/ml, six sugar combo 15 mg/ml each; for Cryopreservation success, number of surviving fronds: sugar 90 mg/ml; for Cryopreservation success, in words: summary of Tables 6 and 7.
Another assay relates to IFN61-B2-101 line. It is filed as in vivo, Lemna minor. As to conditions: sugars at two concentrations: 90 mg/ml (1X) and 270 mg/ml (3X). Here is the method: as §1, §2, §3, §4, §5
The subject of assay [2] is L. minor. It is filed as in vivo, Lemna minor. As to conditions: sugars at two concentrations: 90 mg/ml (1X) and 270 mg/ml (3X).
The mark [3] stands for this setting: first set of experiments, single sugars 90 mg/ml unless the label says 20 mg/ml, six sugar combo 15 mg/ml each, in Schenk and Hildebrandt media during dormancy induction.
The mark [4] stands for this setting: second set of experiments, single sugars 90 mg/ml unless the label says 20 mg/ml, six sugar combo 15 mg/ml each.

`O=C[C@H](O)[C@@H](O)[C@H](O)[C@H](O)CO` [Glucose, glucose]: the Cryopreservation success rate in the assay on L. sp. Branson (setting [3]) is given as 88.5% (23/26); in the assay with L. sp. Branson (setting [4]) it was 53.3% (8/15); in the assay with L. sp. Branson (sugars at two concentrations: 90 mg/ml (1X) and 270 mg/ml (3X), listed as Glucose 1X), 0% (0/11); in the assay with L. sp. Branson (sugars at two concentrations: 90 mg/ml (1X) and 270 mg/ml (3X), listed as Glucose 3X), 0% (0/15); in the assay on BAP01-B2-230 line (listed as Glucose 1X), 0% (0/14); in the assay with BAP01-B2-230 line (listed as Glucose 3X), 0% (0/13). In addition, the Cryopreservation success rate in the assay on L. minor [1] (first set of experiments) is listed as 5.9% (1/17); with L. minor [1] (second set of experiments), 53.9% (7/13); in the assay on Sp. polyrrhiza (first set of experiments), 0% (0/4); in the assay with Sp. polyrrhiza (second set of experiments) it was 0% (0/4); in the assay with L. yungensis (first set of experiments), 0%; in the assay with L. yungensis (second set of experiments), 0%. Also, the Cryopreservation success rate with IFN61-B2-101 line (listed as Glucose 1X) is 5.3%; with IFN61-B2-101 line (listed as Glucose 3X) it was 0%; in the assay with L. minor [2] (listed as Glucose 1X) it was 0% (0/12); in the assay with L. minor [2] (listed as Glucose 3X), 0% (0/16). Further, in the assay on L. minor [1], the “Cryopreservation success, in words” value was “lower cryopreservation success rates”.

Take `OC[C@@H](O)[C@@H](O)[C@H](O)[C@H](O)CO` [Mannitol, mannitol]: the Cryopreservation success rate is 33.3% (6/18) in the assay on L. sp. Branson (setting [3]); 28.6% (4/14) in the assay on L. sp. Branson (setting [4]); 0% (0/8) with L. minor [1] (first set of experiments); 0% (0/14) with L. minor [1] (second set of experiments); 50% (4/8) in the assay on Sp. polyrrhiza (first set of experiments); 57.1% (4/7) in the assay with Sp. polyrrhiza (second set of experiments). Besides, the “Cryopreservation success, in words” value in the assay on L. sp. Branson is recorded as “low relative to the other sugars that were tested”; in the assay on L. minor [1], “ineffective”; in the assay on Sp. polyrrhiza it was “successfully cryopreserved”; with L. yungensis it was “successfully cryopreserved”. Moreover, the “Cryopreservation success, number of surviving fronds” value with L. yungensis (first set of experiments) was determined as 1 frond; in the assay with L. yungensis (second set of experiments), 2 fronds.

With `OC[C@H]1O[C@H](OC[C@H]2O[C@H](O[C@]3(CO)O[C@H](CO)[C@@H](O)[C@@H]3O)[C@H](O)[C@@H](O)[C@@H]2O)[C@H](O)[C@@H](O)[C@H]1O` [Raffinose, raffinose], the Cryopreservation success rate with L. sp. Branson (setting [3]) is 100% (23/23); in the assay with L. sp. Branson (setting [4]), 100% (17/17); in the assay on L. sp. Branson (sugars at two concentrations: 90 mg/ml (1X) and 270 mg/ml (3X), listed as Raffinose 1X), 100% (20/20); in the assay with L. sp. Branson (sugars at two concentrations: 90 mg/ml (1X) and 270 mg/ml (3X), listed as Raffinose 3X), 0% (0/12); in the assay with BAP01-B2-230 line (listed as Raffinose 1X), 96.2% (25/26); in the assay on BAP01-B2-230 line (listed as Raffinose 3X), 0% (0/14). In addition, the Cryopreservation success rate in the assay with L. minor [1] (first set of experiments) is 100% (16/16); in the assay with L. minor [1] (second set of experiments), 92.9% (13/14); in the assay with Sp. polyrrhiza (first set of experiments), 0% (0/6); in the assay with Sp. polyrrhiza (second set of experiments) it was 0% (0/12); with L. yungensis (first set of experiments), 0%; with L. yungensis (second set of experiments), 0%. The Cryopreservation success rate with IFN61-B2-101 line (listed as Raffinose 1X) is 100%; in the assay with IFN61-B2-101 line (listed as Raffinose 3X) it was 26.7%; in the assay on L. minor [2] (listed as Raffinose 1X), 96% (24/25); in the assay on L. minor [2] (listed as Raffinose 3X), 0% (0/19). The “Cryopreservation success, in words” value in the assay with L. minor [1] is “prefers”.

As for `OC[C@@H](O)[C@@H](O)[C@H](O)[C@@H](O)CO` [Sorbitol, sorbitol], the Cryopreservation success rate in the assay on L. sp. Branson (setting [3]) is reported as 27.3% (6/22); in the assay on L. sp. Branson (setting [4]), 16.7% (2/12); with L. minor [1] (first set of experiments) it was 0% (0/13); in the assay with L. minor [1] (second set of experiments), 0% (0/4); in the assay on Sp. polyrrhiza (first set of experiments), 12.5% (1/8); in the assay on Sp. polyrrhiza (second set of experiments) it was 25% (1/4). In addition, the “Cryopreservation success, in words” value in the assay on L. sp. Branson is on record as “low relative to the other sugars that were tested”; with L. minor [1], “ineffective”; with Sp. polyrrhiza, “successfully cryopreserved”; in the assay on L. yungensis it was “successfully cryopreserved”. Also, the “Cryopreservation success, number of surviving fronds” value in the assay with L. yungensis (first set of experiments) and in the assay with L. yungensis (second set of experiments) was 1 frond in each case.

Regarding `OC[C@H]1O[C@H](O[C@H]2O[C@H](CO)[C@@H](O)[C@H](O)[C@H]2O)[C@H](O)[C@@H](O)[C@@H]1O` [Trehalose, trehalose], the Cryopreservation success rate in the assay with L. sp. Branson (setting [3]) is 100% (20/20); in the assay with L. sp. Branson (setting [4]), 100% (16/16); in the assay on L. sp. Branson (sugars at two concentrations: 90 mg/ml (1X) and 270 mg/ml (3X), listed as Trehalose 1X), 100% (17/17); in the assay on L. sp. Branson (sugars at two concentrations: 90 mg/ml (1X) and 270 mg/ml (3X), listed as Trehalose 3X) it was 0% (0/17); in the assay with BAP01-B2-230 line (listed as Trehalose 1X), 85% (17/20); with BAP01-B2-230 line (listed as Trehalose 3X), 0% (0/12). For the same compound, the Cryopreservation success rate is recorded as 100% (17/17) with L. minor [1] (first set of experiments); 85.7% (12/14) with L. minor [1] (second set of experiments); 0% (0/4) with Sp. polyrrhiza (first set of experiments); 0% (0/15) in the assay with Sp. polyrrhiza (second set of experiments); 0% with L. yungensis (first set of experiments); 0% with L. yungensis (second set of experiments). Also, the Cryopreservation success rate with IFN61-B2-101 line (listed as Trehalose 1X) is 93.8%; in the assay with IFN61-B2-101 line (listed as Trehalose 3X) it was 7.1%; in the assay with L. minor [2] (listed as Trehalose 1X) it was 100% (15/15); with L. minor [2] (listed as Trehalose 3X) it was 0% (0/12). Also, in the assay with L. minor [1], the “Cryopreservation success, in words” value is “prefers”.
